Laboratory results from patent US6288060A, “Amino substituted pyrimidines and triazines” (Neurocrine Biosciences, Inc., priority 1998, dated 2001).

These molecules were tested against T1, human CRF receptors (Homo sapiens, UniProt P34998) (assay: radioligand binding assay, displacement of [125I]tyrosine-ovine CRF from CRF receptor (stably transfected cells)). Details: [125I]tyrosine-ovine CRF ~200 pM; cells stably transfected with human CRF receptors; 2 hours at 22° C.
T1 construct: expressed in transfected cells
T1 sequence (P34998 24-415): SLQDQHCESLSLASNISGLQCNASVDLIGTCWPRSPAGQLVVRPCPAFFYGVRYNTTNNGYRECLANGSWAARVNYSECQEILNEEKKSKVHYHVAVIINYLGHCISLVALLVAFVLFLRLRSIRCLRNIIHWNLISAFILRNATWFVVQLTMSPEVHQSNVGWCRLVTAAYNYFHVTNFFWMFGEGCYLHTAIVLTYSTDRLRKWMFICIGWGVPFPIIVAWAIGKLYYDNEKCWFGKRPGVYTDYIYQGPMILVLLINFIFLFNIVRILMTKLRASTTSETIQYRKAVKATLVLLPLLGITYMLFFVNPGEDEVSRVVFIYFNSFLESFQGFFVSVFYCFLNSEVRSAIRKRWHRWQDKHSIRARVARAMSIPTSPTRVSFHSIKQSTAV
From the text: The effectiveness of a compound as a CRF receptor antagonist may be determined by various assay methods. […] CRF receptor affinity may be determined by binding studies that measure the ability of a compound to inhibit the binding of a radiolabeled CRF (e.g. [^125 I]tyrosine CFR) to receptor (e.g., receptors prepared from rat cerebral cortex membranes). The radioligand binding assay described by DeSouza et al. (supra, 1987) provides an assay for determining a compound's affinity for the CRF receptor.
where L=radioligand and KD =affinity of radioligand for receptor (Cheng and Prusoff, Biochem. Pharmacol. 22:3099, 1973).
By utilizing various radiolabeled CRF ligands, the assay may be used to evaluate the binding activity of the compounds of the present invention with any CRF receptor subtype. Briefly, the binding assay involves the displacement of a radiolabeled CRF ligand from the CRF receptor.
More specifically, the binding assay was performed in 1.5 ml Eppendorf tubes using approximately 1×10^6 cells per tube stably transfected with human CRF receptors. Each tube received about 0.1 ml of assay buffer (e.g., Dulbecco's phosphate buffered saline, 10 mM magnesium chloride, 20 μM bacitracin) with or without unlabeled sauvagine, urotensin I or CRF (final concentration, […]) to determine nonspecific binding, 0.1 ml of [^125 I] tyrosine--ovine CRF (final concentration ~200 pM or approximately the KD as determined by Scatchard analysis) and 0.1 ml of a membrane suspension of cells containing the CRF receptor. The mixture was incubated for 2 hours at 22° C. followed by the separation of the bound and free radioligand by centrifugation. Following two washes of the pellets, the tubes were cut just above the pellet and monitored in a gamma counter for radioactivity at approximately 80% efficiency. All radioligand binding data was analyzed using a non-linear least-square curve-fitting program. Binding activity corresponds to the concentration (nM) of the compound necessary to displace 50% of the radiolabeled ligand from the receptor.

| Ki [nM] | Structure (SMILES) |
| --- | --- |
| ≤ 250 | CCCN(CC1CC1)c1nc(C)nc(C(=O)c2c(C)cc(C)cc2C)c1C [Compound 5] |
| ≤ 250 | CCCN(CC1CC1)c1nc(C)nc(Cc2c(OC)cc(OC)cc2OC)c1C [Compound 20, 2,6-dimethyl-4-(N-propyl-N-cyclopropylmethylamino)-6-(2',4',6'-trimethyloxyphenylmeth-1'-yl)-pyrimidine] |
| ≤ 250 | C=CCN(CC=C)c1nc(C)nc(C(=O)c2c(C)cc(C)cc2C)c1C [Compound 14] |
| ≤ 250 | CCCN(CC1CC1)c1nc(C)nc(C(=O)c2c(OC)cc(OC)cc2OC)c1C [Compound 2] |
| ≤ 250 | CCCN(CC1CC1)c1nc(C)nc(C(=O)c2c(CC)cc(CC)cc2CC)c1C [Compound 8] |
| ≤ 250 | CCCN(CCC)c1nc(C)nc(C(=O)c2c(C)cc(C)cc2C)c1C [Compound 13] |

Same assay, conditions: result in words, same radioligand binding assay

| score in CRF receptor binding test (ranking among compounds) | Structure (SMILES) |
| --- | --- |
| best score | CCCN(CC1CC1)c1nc(C)nc(C(=O)c2c(CC)cc(CC)cc2CC)c1C [Compound 8] |
